Source: ChEMBL document CHEMBL1806470, “Synthesis and antiglycation potentials of bergenin derivatives” (Bioorg Med Chem Lett, 2011)

Legend:
[1] = Antiglycation activity assessed as inhibition of Schiff-base formation at 200 uM; type: physicochemical
[2] = Antiglycation activity assessed as inhibition of Schiff-base formation; type: physicochemical
[3] = target: T1, Albumin (Bos taurus, UniProt P02769); test: Antiglycation activity in bovine serum albumin assessed as inhibition of fructosamines formation at 200 uM in presence of glucose; details: cattle
T1 sequence (P02769 whole entry): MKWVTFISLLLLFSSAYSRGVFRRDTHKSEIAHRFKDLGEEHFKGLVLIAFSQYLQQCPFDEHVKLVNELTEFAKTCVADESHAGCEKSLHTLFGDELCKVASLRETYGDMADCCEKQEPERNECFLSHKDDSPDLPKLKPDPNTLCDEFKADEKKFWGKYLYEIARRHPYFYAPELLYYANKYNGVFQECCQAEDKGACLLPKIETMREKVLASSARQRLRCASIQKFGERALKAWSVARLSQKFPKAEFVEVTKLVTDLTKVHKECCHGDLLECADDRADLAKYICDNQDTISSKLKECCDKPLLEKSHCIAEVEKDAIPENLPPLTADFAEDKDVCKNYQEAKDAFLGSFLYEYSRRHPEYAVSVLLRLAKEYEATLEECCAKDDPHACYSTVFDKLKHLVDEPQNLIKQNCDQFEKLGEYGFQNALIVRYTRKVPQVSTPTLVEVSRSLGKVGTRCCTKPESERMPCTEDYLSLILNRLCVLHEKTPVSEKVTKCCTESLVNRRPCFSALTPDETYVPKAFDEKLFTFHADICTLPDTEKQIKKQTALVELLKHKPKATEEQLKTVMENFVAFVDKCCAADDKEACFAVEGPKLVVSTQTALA

[4] = target: T1, Albumin; test: Antiglycation activity in bovine serum albumin assessed as inhibition of fructosamines formation in presence of glucose
[5] = Antiglycation activity assessed as inhibition of dicarbonyl compounds formation at 200 uM; type: physicochemical
[6] = Antiglycation activity assessed as inhibition of dicarbonyl compounds formation; type: physicochemical
[7] = Antiglycation activity assessed as inhibition of advanced glycation end product formation at 200 uM; type: physicochemical
[8] = Antiglycation activity assessed as inhibition of advanced glycation end product formation; type: physicochemical
[9] = Antioxidant activity assessed as ABTS free radical scavenging activity

| Compound | inhibition (INH) [1] | IC50 [2] | inhibition at 200 µM [3] | IC50 [4] | inhibition (INH) [5] | IC50 [6] | inhibition (INH) [7] | IC50 [8] | IC50 [9] | inhibition (INH) ([3]; 200 µM) |
| --- | --- | --- | --- | --- | --- | --- | --- | --- | --- | --- |
| N=C(N)NN [PIMAGEDINE] |  |  |  |  |  |  | 79.67% | 88.9 µM |  |  |
| COc1c(O)cc2c(c1O)[C@@H]1O[C@H](COC(=O)/C=C/c3ccccc3)[C@@H](O)[C@H](O)[C@H]1OC2=O |  |  |  |  |  |  | Not Active |  | 3 µM | Not Active |
| COc1c(O)cc2c(c1O)[C@@H]1O[C@H](CO)[C@@H](O)[C@H](O)[C@H]1OC2=O [BERGENIN] | 109.4% | 0.00054 µM | 20.6% | 164 µM | 102.66% |  | 75.69% | 187 µM | 2 µM |  |
| COc1ccc(C(=O)OC[C@H]2O[C@H]3c4c(cc(O)c(OC)c4O)C(=O)O[C@@H]3[C@@H](O)[C@@H]2O)c([N+](=O)[O-])c1 |  |  | 17.5% |  |  |  | Not Active |  | 4.4 µM |  |

Next, values leading:

| inhibition (INH) [1] | IC50 [2] | inhibition at 200 µM [3] | IC50 [4] | inhibition (INH) [5] | IC50 [6] | inhibition (INH) [7] | IC50 [8] | IC50 [9] | inhibition (INH) ([3]; 200 µM) | Compound |
| --- | --- | --- | --- | --- | --- | --- | --- | --- | --- | --- |
| 97.86% | 76 µM | 26.2% | 322 µM | 97.77% | 8.95 µM | 93.27% | 60.8 µM | 1.7 µM |  | COc1c(O)cc2c(c1O)[C@@H]1O[C@H](COC(=O)c3cccc(O)c3O)[C@@H](O)[C@H](O)[C@H]1OC2=O |
|  |  | 36.5% |  |  |  | Not Active |  | 4.2 µM |  | COc1cc(C(=O)OC[C@H]2O[C@H]3c4c(cc(O)c(OC)c4O)C(=O)O[C@@H]3[C@@H](O)[C@@H]2O)ccc1O |
|  |  | 42.1% |  |  |  | Not Active |  | 3.2 µM |  | COc1cc(C(=O)OC[C@H]2O[C@H]3c4c(cc(O)c(OC)c4O)C(=O)O[C@@H]3[C@@H](O)[C@@H]2O)cc(OC)c1OC |
|  |  | 49.2% |  |  |  | Not Active |  | 3.5 µM |  | COc1c(O)cc2c(c1O)[C@@H]1O[C@H](COC(=O)c3ccccc3)[C@@H](O)[C@H](O)[C@H]1OC2=O |
|  |  | 21.4% |  |  |  | Not Active |  | 3.6 µM |  | COc1c(O)cc2c(c1O)[C@@H]1O[C@H](COC(=O)c3ccc([N+](=O)[O-])cc3)[C@@H](O)[C@H](O)[C@H]1OC2=O |
| 95.96% | 9.06 µM | 22.2% | 184 µM | 102.22% |  | 83.62% | 12.3 µM | 1.5 µM |  | COc1c(O)cc2c(c1O)[C@@H]1O[C@H](COC(=O)c3cc(O)c(O)c(O)c3)[C@@H](O)[C@H](O)[C@H]1OC2=O |
